The conditions of series [1]: Gefitinib 225mg, Japanese patients, ref [3] Nakagawa K et al., Annals of Oncology 2003, cited from earlier work.
The nature of series [2]: Pharmacokinetic analyses: apatinib and gefitinib plasma concentrations (LC–MS/MS, non‐compartmental). As to conditions: for half-life: T1/2, gefitinib 250 mg + apatinib 500 or 250 mg. The source says: In the two cohorts, PK assessment consisted of a single‐dose‐administration on Cycle 1, Day 1's (C1, D1) test and a continuous‐dose‐administration on Cycle 1, Day 15′s (C1, D15) test. For detailed blood collection administration, see the supplementary materials. […] PK parameters, including maximum plasma concentration (C max), area under the plasma concentration‐time curve (AUC), time to reach maximum plasma concentration (T max), elimination half‐life (T 1/2), steady state concentration (Css), area under the plasma concentration‐time curve for steady state (AUCss), steady state volume of distribution (Vdss), and steady state clearance rate (CLss) were calculated using non‐compartmental methods with Winnonlin 7 software. The AUC was estimated by using the linear trapezoidal rule method and T 1/2 was determined by linear regression of the terminal slope of the logarithmic plasma concentration‐time profile. Descriptive statistics were measured for the PK parameters using mean with its corresponding standard deviation (SD).
In the two cohorts, PK assessment consisted of a single-dose-administration (C1D1) test and a continuous-dose-administration (C1D15) test. Serial peripheral blood samples were collected at pre-dose and 1, 2, 3, 4, 5, 6, 8, 12 and 24 post-dose for the single dose PK test. For the continuous PK test, serial peripheral blood samples were collected at pre-dose and at 0.5, 1, 2, 3, 4, 5, 6, 8, 12, and 24 hours post-dose on […]. Samples were centrifuged, and plasma frozen at −80°C refrigerator until further analysis.
Descriptive statistics (mean and standard deviation) were estimated for PK parameters. Median values and ranges were provided for time to reach maximum plasma concentration.

The conditions of series [3]: cited from earlier work.
In series [4] the test system is EGFR‐mutant NSCLC. The conditions noted are these: cited from earlier work.

Results on 3 compounds are retold here after PMC7403827 (Clinical and Translational Medicine, 2020).

Like-named read-outs stand apart in the source and are kept apart here.

What is called AUC(0-t) is exposure summed from dosing to a finite time, without extrapolation to infinity. A word on the AUC: it is concentration integrated over time. Broadly, the half-life is the time needed for the level to fall by half in the phase considered. `COc1cc2ncnc(Nc3ccc(F)c(Cl)c3)c2cc1OCCCN1CCOCC1` [Gefitinib]: the AUC0-24multi in series [1] (multiple-dosage regimen) is reported as 5191 (61) ng·h/ml. Besides, the AUC0-24 in series [1] is reported as 1986 (58) ng·h/ml. Also, the Cmax in series [1] was 150 (92) ng/ml; in series [2] (human, plasma, oral, Table S6, Gefitinib 250mg + apatinib, this study, geometric mean, SD) it was 488 ± 28 ng/mL; in series [2] (human, plasma, oral, gefitinib 250 mg + apatinib 500 or 250 mg, Day 1 (n = 11), Table 2: Geometric Mean (%CV)), 272 ng/mL; in series [2] (human, plasma, oral, gefitinib 250 mg + apatinib 500 or 250 mg, Day 15 (n = 11), Table 2: Geometric Mean (%CV)), 465 ng/mL. The Cmaxmulti in series [1] was 341 (61) ng/ml; in series [2] (Table S6, Gefitinib 250mg + apatinib, this study, geometric mean, SD) it was 469 (134) ng/ml. The Tmax was 5 (3-7) h in series [1]; 4 (3‐6) h in series [2] (gefitinib 250 mg + apatinib 500 or 250 mg, Day 15 (n = 11), Median (range)); 3.9 h in series [2] (human, plasma, oral, Tmax, Table S6, Gefitinib 250mg + apatinib, this study, geometric mean, SD); 3 h in series [2] (human, plasma, oral, Tmax, gefitinib 250 mg + apatinib 500 or 250 mg, Day 1 (n = 11), Median (range)); 3 h in series [2] (human, plasma, oral, Tmax, gefitinib 250 mg + apatinib 500 or 250 mg, Day 15 (n = 11), Median (range)). For the same compound, the AUC(0-t) in series [2] (human, plasma, oral, AUC0-24, Table S6, Gefitinib 250mg + apatinib, this study, geometric mean, SD) was determined as 3330 ng·h/mL. Besides, the AUC in series [2] (human, plasma, oral, AUC0-24multi, Table S6, Gefitinib 250mg + apatinib, this study, multiple-dosage regimen, geometric mean, SD) stood at 8130 ng·h/mL; in series [2] (human, plasma, oral, AUC0‐24, gefitinib 250 mg + apatinib 500 or 250 mg, Day 1 (n = 11), Table 2: Geometric Mean (%CV)) it was 3440 ng·h/mL; in series [2] (human, plasma, oral, AUC0‐24, gefitinib 250 mg + apatinib 500 or 250 mg, Day 15 (n = 11), Table 2: Geometric Mean (%CV)) it was 7980 ng·h/mL; in series [2] (human, plasma, oral, AUC0‐∞, gefitinib 250 mg + apatinib 500 or 250 mg, Day 1 (n = 11), Geometric Mean (%CV)), 6400 ng·h/mL; in series [2] (human, plasma, oral, AUC0‐∞, gefitinib 250 mg + apatinib 500 or 250 mg, Day 15 (n = 11), Geometric Mean (%CV)), 18100 ng·h/mL; in series [2] (human, plasma, oral, AUCss, steady state, Gefitinib 250mg + apatinib, Mean±SD) it was 7220 ± 1730 ng·h/mL. The clearance in series [2] (human, plasma, oral, CL, gefitinib 250 mg + apatinib 500 or 250 mg, Day 1 (n = 11), Mean (SD)) was 683 mL/min; in series [2] (human, plasma, oral, CL, gefitinib 250 mg + apatinib 500 or 250 mg, Day 15 (n = 11), Mean (SD)) it was 533 mL/min; in series [2] (human, plasma, oral, CLss, steady state, Gefitinib 250mg + apatinib, Mean±SD), 617 mL/min. Also, the half-life is 21 h in series [2] (human, plasma, oral, Day 1 (n = 11), Mean (SD)) and 30 h in series [2] (human, plasma, oral, Day 15 (n = 11), Mean (SD)). The Vd in series [2] (human, plasma, oral, Vd, gefitinib 250 mg + apatinib 500 or 250 mg, Day 1 (n = 11), Mean (SD)) worked out at 1100 L; in series [2] (human, plasma, oral, Vd, gefitinib 250 mg + apatinib 500 or 250 mg, Day 15 (n = 11), Mean (SD)), 1330 L; in series [2] (human, plasma, oral, Vdss, steady state, Gefitinib 250mg + apatinib, Mean±SD) it was 880 ± 234 L. In addition, the MTD in series [3] is 750 mg/day.
Turning to `C=CC(=O)Nc1cc(Nc2nccc(-c3cn(C)c4ccccc34)n2)c(OC)cc1N(C)CCN(C)C` [Osimertinib], the mPFS in series [4] (AURA3 study) is 10.1 months.
Turning to `C#Cc1cccc(Nc2ncnc3cc(OCCOC)c(OCCOC)cc23)c1` [erlotinib], in series [4] (ARTEMIS (CTONG 1509) study), the mPFS was 11.3 months. The PFS in series [4] (JO25567 study) is given as 9.7 months; in series [4] (RELAY study) it was 12.4 months.
